{
  "source": "patent US20210267978A1",
  "about": "“NANOPARTICLE FORMULATIONS OF IKE AND METHODS OF USE THEREOF” (The Trustees of Columbia University in the City of New York, priority 2018, published 2021)",
  "key": {"[1]": {"system": "SUDHL6 xenograft tumor tissue", "assay": "Western blot of caspase-3 in tumor tissue from efficacy study", "format": "in vivo, NCG mice", "conditions": "treatment for 14 days", "procedure": "10-25 mg tumor tissue was placed into a 1.5 mL Eppendorf microfuge tube, and the sample was placed on dry ice until use. 20 μL/mg ice cold RIPA buffer with cocktail protease inhibitor (Roche) was added. The tumor tissue was homogenized at speed 5 for 30 sec using Bead Ruptor 4. The sample was centrifuged at 4° C. at 1,600×g for 10 min. The sample was kept on ice and the supernatant used for analysis. Caspase-3 antibody which could recognize both full-length caspase-3 and cleaved caspase-3 was used. α-Tubulin antibody was used as the reference."}, "[2]": {"assay": "Pharmacokinetic analysis in mice with three administration routes (plasma, LC-MS)", "format": "in vivo", "conditions": "NOD/SCID mice; for AUC(0-t) / Cmax / Tmax / half-life / concentration at 8 h: mouse; for concentration at 8 h: read-out: Clast", "procedure": "NOD/SCID mice 12-weeks of age and ˜28 g weight were weighed before injection and divided into groups of 3 mice per cage. IKE was dissolved in 5% DMSO/95% Hank's Balanced Salt Solution (HBSS) (Thermo Fisher Scientific, 14025076), pH 4, to create a 5 mg/mL solution. 5% DMSO/95% HBSS at pH 4 solution (Vehicle 1) without IKE was used as vehicle. The solution was sterilized using a 0.22 μm Steriflip filter unit (Thomas Scientific 1189Q46). Mice were dosed using three different routes, IP and PO with 50 mg/kg IKE, and IV with 17 mg/kg IKE. Samples were collected at 0, 1, 3, 4, and 8 h from three mice per time point. Additionally, three mice per group were used as control by administration with equivalent amount of vehicle 1 by IP, PO, and IV, and samples were collected at 8 h. At the appropriate time, mice were sacrificed by CO2 asphyxiation for 3 min and ˜0.5 mL of blood was collected via cardiac puncture. Blood was immediately put into K3 EDTA micro tube (SARSTEDT 41.1504.105) and placed on ice. Samples were centrifuged for 10 min at 2,100×g at 4° C., plasma was then transferred to a clean tube. Plasma samples were flash frozen in liquid nitrogen and stored at −80° C. IKE was extracted from plasma by adding 900 μL acetonitrile to 100 μL plasma. Samples were mixed for at least 5 min by rotating at room temperature and were sonicated prior to […] for 10 min at 4,000×g and 4° C. The supernatant was removed and dried on a GeneVac evaporator overnight on an HPLC setting. After drying, the samples were resuspended in 100 μL of methanol and analyzed on the liquid chromatography mass spectrometry (LC-MS), with each sample analyzed twice. Quality control standard samples were prepared by dissolving IKE in 100 μL water and extraction with the same procedures to ensure that the extraction was efficient. LC-MS analysis was performed on a platform comprising a Thermo Scientific Dionex Ultimate 3000RS controlled by Chromeleon (Dionex) and a Bruker amazon SL ESI ion-trap mass spectrometer.\nChromatographic separation was performed at 20° C. on Agient Eclipse Plus C18 column (2.1×50 mm, 3.5 μm) at 20° C. over a 12 minute gradient elution. Mobile phase A consisted of water with 0.1% acetic acid v/v and mobile phase B was methanol with 0.1% acetic acid v/v. After injection, the gradient was held at 80% mobile phase A for 1 min. The gradient was then ramped in a linear fashion to 80% mobile phase over 0.5 min. Over the next 3.5 min, the gradient was ramped in linear fashion to 100% mobile phase B and held at 100% mobile phase B for 3.25 min. The gradient was then ramped in a linear fashion to 80% mobile phase over 0.5 min and held there for the duration of the run. The flow rate was set to 400 μL/min and injection volumes were 5 μL. The retention time for IKE in this gradient was 2.8 min.\nMass spectrometry analysis was performed on a Bruker Amazon SL (Billerca, MA) in positive ESI mode. Trap Control was used to control the ESI settings with the inlet capillary held at −4500 V and the end plate offset at −500 V. Nitrogen was used as the desolvation gas. Hystar v 3.2 was used to integrate the UHPLC and MS applications, and data analysis was performed with the Compass DataAnalysis software. The base peak chromatogram at m/z 655.2 with a width of ±0.1 was integrated and peak area quantified by standard curve.\nPharmacokinetics (PK) of IKE was assessed using Prism fitted with lognormal of one phase exponential decay."}, "some cell lines": {"system": "some cell lines", "conditions": "cited from earlier work"}},
  "note": "Read-outs that look alike come from different tables or passages of the source.",
  "data": [
    {"smiles": "CC(C)Oc1ccc(C(=O)Cn2ccnc2)cc1-n1c(CN2CCN(C(=O)COc3ccc(Cl)cc3)CC2)nc2ccccc2c1=O", "note": "[IKE, Imidazole ketone erastin]", "values": [
      {"measurement": "cleaved-caspase 3 in tumor tissue (western blot)", "setting": "[1]", "value": "no cleaved-caspase 3 increase"},
      {"measurement": "Tlast", "setting": "[2]; IP, 50 mg/kg IKE", "value": 8, "unit": "h"},
      {"measurement": "Tlast", "setting": "[2]; IV, 17 mg/kg IKE", "value": 8, "unit": "h"},
      {"measurement": "Tlast", "setting": "[2]; PO, 50 mg/kg IKE", "value": 8, "unit": "h"},
      {"measurement": "AUC(0-t)", "setting": "[2]; IP, 50 mg/kg IKE", "value": 53900, "unit": "ng·h/mL"},
      {"measurement": "Cmax", "setting": "[2]; IP, 50 mg/kg IKE", "value": 19500, "unit": "ng/mL"},
      {"measurement": "Tmax", "setting": "[2]; IP, 50 mg/kg IKE", "value": 18.6, "unit": "min"},
      {"measurement": "half-life", "setting": "[2]; IP, 50 mg/kg IKE", "value": 109, "unit": "min"},
      {"measurement": "concentration at 8 h", "setting": "[2]; IP, 50 mg/kg IKE", "value": 1530, "unit": "ng/mL"},
      {"measurement": "AUC(0-t)", "setting": "[2]; IV, 17 mg/kg IKE", "value": 17000, "unit": "ng·h/mL"},
      {"measurement": "Cmax", "setting": "[2]; IV, 17 mg/kg IKE", "value": 11400, "unit": "ng/mL"},
      {"measurement": "Tmax", "setting": "[2]; IV, 17 mg/kg IKE", "value": 0, "unit": "min"},
      {"measurement": "half-life", "setting": "[2]; IV, 17 mg/kg IKE", "value": 78.6, "unit": "min"},
      {"measurement": "concentration at 8 h", "setting": "[2]; IV, 17 mg/kg IKE", "value": 16, "unit": "ng/mL"},
      {"measurement": "AUC(0-t)", "setting": "[2]; PO, 50 mg/kg IKE", "value": 5720, "unit": "ng·h/mL"},
      {"measurement": "Cmax", "setting": "[2]; PO, 50 mg/kg IKE", "value": 5200, "unit": "ng/mL"},
      {"measurement": "Tmax", "setting": "[2]; PO, 50 mg/kg IKE", "value": 43.2, "unit": "min"},
      {"measurement": "half-life", "setting": "[2]; PO, 50 mg/kg IKE", "value": 57.6, "unit": "min"},
      {"measurement": "concentration at 8 h", "setting": "[2]; PO, 50 mg/kg IKE", "value": 48, "unit": "ng/mL"},
      {"measurement": "potency improvement compared with erastin", "setting": "some cell lines", "value": "> 100", "unit": "×"}
    ]}
  ]
}
